Test results reported in PubChem BioAssay (NCI).
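Step 1: Grow cells in 96-well plates. Step 2: Expose to compound for 48 hours at 5 concentrations. Step 3: Interpolate endpoints linearly; if unreached, use highest concentration. TGI denotes the concentration required for complete inhibition of growth.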

Assays:
Assay in all cases: NCI-60 cell line screen, 48 h
SK-OV-3 ovarian = test system: SK-OV-3 ovarian
DLD-1 colon = test system: DLD-1 colon
SK-MEL-2 melanoma = test system: SK-MEL-2 melanoma
A498 renal = test system: A498 renal
UO-31 renal = test system: UO-31 renal
SK-MEL-5 melanoma = test system: SK-MEL-5 melanoma
OVCAR-5 ovarian = test system: OVCAR-5 ovarian
OVCAR-4 ovarian = test system: OVCAR-4 ovarian
A549 NSCLC = test system: A549 NSCLC
TK-10 renal = test system: TK-10 renal
KM20L2 colon = test system: KM20L2 colon
M19-MEL melanoma = test system: M19-MEL melanoma
CCRF-CEM leukemia = test system: CCRF-CEM leukemia
K-562 leukemia = test system: K-562 leukemia
COLO 205 colon = test system: COLO 205 colon
MOLT-4 leukemia = test system: MOLT-4 leukemia
NCI-H522 lung = test system: NCI-H522 lung
HCT-15 colon = test system: HCT-15 colon
HOP-62 NSCLC = test system: HOP-62 NSCLC
DMS 114 small cell lung = test system: DMS 114 small cell lung
HOP-92 NSCLC = test system: HOP-92 NSCLC
SF-295 CNS = test system: SF-295 CNS
ACHN renal = test system: ACHN renal
SK-MEL-28 melanoma = test system: SK-MEL-28 melanoma
M14 melanoma = test system: M14 melanoma
RXF 393 renal = test system: RXF 393 renal
NCI-H226 lung = test system: NCI-H226 lung
LXFL 529 NSCLC = test system: LXFL 529 NSCLC
OVCAR-8 ovarian = test system: OVCAR-8 ovarian
NCI-H460 lung = test system: NCI-H460 lung
CAKI-1 renal = test system: CAKI-1 renal
DMS 273 small cell lung = test system: DMS 273 small cell lung
786-0 renal = test system: 786-0 renal
U251 CNS = test system: U251 CNS
HOP-18 NSCLC = test system: HOP-18 NSCLC
OVCAR-3 ovarian = test system: OVCAR-3 ovarian
SNB-75 CNS = test system: SNB-75 CNS
HL-60(TB) leukemia = test system: HL-60(TB) leukemia
KM12 colon = test system: KM12 colon
SW-620 colon = test system: SW-620 colon
SN12C renal = test system: SN12C renal
NCI-H23 lung = test system: NCI-H23 lung
HT29 colon = test system: HT29 colon
SF-539 CNS = test system: SF-539 CNS
EKVX NSCLC = test system: EKVX NSCLC
SNB-78 CNS = test system: SNB-78 CNS
IGROV1 ovarian = test system: IGROV1 ovarian
RPMI-8226 leukemia = test system: RPMI-8226 leukemia
MALME-3M melanoma = test system: MALME-3M melanoma
SNB-19 CNS = test system: SNB-19 CNS
HCT-116 colon = test system: HCT-116 colon
SF-268 CNS = test system: SF-268 CNS
HCC-2998 colon = test system: HCC-2998 colon
UACC-62 melanoma = test system: UACC-62 melanoma
UACC-257 melanoma = test system: UACC-257 melanoma
LOX IMVI melanoma = test system: LOX IMVI melanoma
XF 498 CNS = test system: XF 498 CNS
SR leukemia = test system: SR leukemia

SMILES: O=S(Cc1cc2c(cc1Br)OCO2)c1ccccc1 (stereo unspecified)
- TGI (SK-OV-3 ovarian): > 100 µM
- TGI (DLD-1 colon): 49.5 µM
- TGI (SK-MEL-2 melanoma): > 100 µM
- TGI (A498 renal): > 100 µM
- TGI (UO-31 renal): > 100 µM
- TGI (SK-MEL-5 melanoma): > 100 µM
- TGI (OVCAR-5 ovarian): > 100 µM
- TGI (OVCAR-4 ovarian): > 100 µM
- TGI (A549 NSCLC): > 100 µM
- TGI (TK-10 renal): > 100 µM
- TGI (KM20L2 colon): > 100 µM
- TGI (M19-MEL melanoma): > 100 µM
- TGI (CCRF-CEM leukemia): 76.3 µM
- TGI (K-562 leukemia): > 100 µM
- TGI (COLO 205 colon): > 100 µM
- TGI (MOLT-4 leukemia): > 100 µM
- TGI (NCI-H522 lung): 56.3 µM
- TGI (HCT-15 colon): > 100 µM
- TGI (HOP-62 NSCLC): > 100 µM
- TGI (DMS 114 small cell lung): 61.8 µM
- TGI (HOP-92 NSCLC): > 100 µM
- TGI (SF-295 CNS): > 100 µM
- TGI (ACHN renal): > 100 µM
- TGI (SK-MEL-28 melanoma): > 100 µM
- TGI (M14 melanoma): > 100 µM
- TGI (RXF 393 renal): > 100 µM
- TGI (NCI-H226 lung): > 100 µM
- TGI (LXFL 529 NSCLC): > 100 µM
- TGI (OVCAR-8 ovarian): > 100 µM
- TGI (NCI-H460 lung): > 100 µM
- TGI (CAKI-1 renal): > 100 µM
- TGI (DMS 273 small cell lung): > 100 µM
- TGI (786-0 renal): > 100 µM
- TGI (U251 CNS): > 100 µM
- TGI (HOP-18 NSCLC): > 100 µM
- TGI (OVCAR-3 ovarian): > 100 µM
- TGI (SNB-75 CNS): > 100 µM
- TGI (HL-60(TB) leukemia): 57.4 µM
- TGI (KM12 colon): 59.4 µM
- TGI (SW-620 colon): 29.7 µM
- TGI (SN12C renal): > 100 µM
- TGI (NCI-H23 lung): > 100 µM
- TGI (HT29 colon): > 100 µM
- TGI (SF-539 CNS): 91.2 µM
- TGI (EKVX NSCLC): > 100 µM
- TGI (SNB-78 CNS): > 100 µM
- TGI (IGROV1 ovarian): > 100 µM
- TGI (RPMI-8226 leukemia): 59.4 µM
- TGI (MALME-3M melanoma): > 100 µM
- TGI (SNB-19 CNS): > 100 µM
- TGI (HCT-116 colon): > 100 µM
- TGI (SF-268 CNS): > 100 µM
- TGI (HCC-2998 colon): > 100 µM
- TGI (UACC-62 melanoma): > 100 µM
- TGI (UACC-257 melanoma): > 100 µM
- TGI (LOX IMVI melanoma): 30.7 µM

SMILES: CC1=NN(c2ccccc2)C(=O)C1=C1SCCCS1
- TGI (SK-OV-3 ovarian): > 100 µM
- TGI (DLD-1 colon): 45.9 µM
- TGI (SK-MEL-2 melanoma): > 100 µM
- TGI (A498 renal): 90.7 µM
- TGI (UO-31 renal): > 100 µM
- TGI (SK-MEL-5 melanoma): > 100 µM
- TGI (OVCAR-5 ovarian): > 100 µM
- TGI (A549 NSCLC): > 100 µM
- TGI (TK-10 renal): > 100 µM
- TGI (KM20L2 colon): > 100 µM
- TGI (M19-MEL melanoma): > 100 µM
- TGI (CCRF-CEM leukemia): 39 µM
- TGI (K-562 leukemia): 47.6 µM
- TGI (COLO 205 colon): 29.3 µM
- TGI (MOLT-4 leukemia): 36.1 µM
- TGI (NCI-H522 lung): 37.5 µM
- TGI (HCT-15 colon): > 100 µM
- TGI (HOP-62 NSCLC): > 100 µM
- TGI (DMS 114 small cell lung): 45.2 µM
- TGI (HOP-92 NSCLC): 64 µM
- TGI (SF-295 CNS): 73.7 µM
- TGI (ACHN renal): > 100 µM
- TGI (SK-MEL-28 melanoma): > 100 µM
- TGI (M14 melanoma): > 100 µM
- TGI (RXF 393 renal): 60.7 µM
- TGI (NCI-H226 lung): > 100 µM
- TGI (LXFL 529 NSCLC): > 100 µM
- TGI (OVCAR-8 ovarian): > 100 µM
- TGI (NCI-H460 lung): > 100 µM
- TGI (CAKI-1 renal): 52.1 µM
- TGI (XF 498 CNS): 58.6 µM
- TGI (DMS 273 small cell lung): > 100 µM
- TGI (786-0 renal): > 100 µM
- TGI (U251 CNS): 37.4 µM
- TGI (HOP-18 NSCLC): > 100 µM
- TGI (SR leukemia): 34.5 µM
- TGI (OVCAR-3 ovarian): 70.7 µM
- TGI (SNB-75 CNS): > 100 µM
- TGI (HL-60(TB) leukemia): 41.9 µM
- TGI (KM12 colon): 66 µM
- TGI (SW-620 colon): 26.6 µM
- TGI (SN12C renal): 83.2 µM
- TGI (NCI-H23 lung): > 100 µM
- TGI (HT29 colon): > 100 µM
- TGI (EKVX NSCLC): 88.4 µM
- TGI (SNB-78 CNS): > 100 µM
- TGI (IGROV1 ovarian): > 100 µM
- TGI (RPMI-8226 leukemia): 46.1 µM
- TGI (MALME-3M melanoma): > 100 µM
- TGI (SNB-19 CNS): 84.7 µM
- TGI (HCT-116 colon): 31.7 µM
- TGI (SF-268 CNS): > 100 µM
- TGI (HCC-2998 colon): > 100 µM
- TGI (UACC-62 melanoma): 39.7 µM
- TGI (UACC-257 melanoma): 94.1 µM
- TGI (LOX IMVI melanoma): 55.8 µM

SMILES: N#C/C(=C\c1ccc(O)cc1O)C(N)=O
- TGI (SK-OV-3 ovarian): > 100 µM
- TGI (DLD-1 colon): > 100 µM
- TGI (SK-MEL-2 melanoma): > 100 µM
- TGI (A498 renal): > 100 µM
- TGI (UO-31 renal): > 100 µM
- TGI (OVCAR-5 ovarian): > 100 µM
- TGI (OVCAR-4 ovarian): > 100 µM
- TGI (A549 NSCLC): > 100 µM
- TGI (TK-10 renal): > 100 µM
- TGI (KM20L2 colon): > 100 µM
- TGI (M19-MEL melanoma): > 100 µM
- TGI (CCRF-CEM leukemia): > 100 µM
- TGI (K-562 leukemia): > 100 µM
- TGI (COLO 205 colon): 26.5 µM
- TGI (MOLT-4 leukemia): > 100 µM
- TGI (NCI-H522 lung): > 100 µM
- TGI (HCT-15 colon): > 100 µM
- TGI (HOP-62 NSCLC): > 100 µM
- TGI (HOP-92 NSCLC): > 100 µM
- TGI (SF-295 CNS): > 100 µM
- TGI (ACHN renal): > 100 µM
- TGI (SK-MEL-28 melanoma): > 100 µM
- TGI (M14 melanoma): > 100 µM
- TGI (RXF 393 renal): 83.5 µM
- TGI (NCI-H226 lung): > 100 µM
- TGI (LXFL 529 NSCLC): > 100 µM
- TGI (OVCAR-8 ovarian): > 100 µM
- TGI (NCI-H460 lung): > 100 µM
- TGI (CAKI-1 renal): > 100 µM
- TGI (XF 498 CNS): > 100 µM
- TGI (DMS 273 small cell lung): > 100 µM
- TGI (786-0 renal): > 100 µM
- TGI (U251 CNS): > 100 µM
- TGI (OVCAR-3 ovarian): > 100 µM
- TGI (SNB-75 CNS): 67.4 µM
- TGI (HL-60(TB) leukemia): > 100 µM
- TGI (KM12 colon): > 100 µM
- TGI (SW-620 colon): > 100 µM
- TGI (SN12C renal): > 100 µM
- TGI (NCI-H23 lung): > 100 µM
- TGI (HT29 colon): 98.2 µM
- TGI (SF-539 CNS): > 100 µM
- TGI (EKVX NSCLC): > 100 µM
- TGI (SNB-78 CNS): > 100 µM
- TGI (IGROV1 ovarian): > 100 µM
- TGI (RPMI-8226 leukemia): > 100 µM
- TGI (MALME-3M melanoma): > 100 µM
- TGI (SNB-19 CNS): > 100 µM
- TGI (HCT-116 colon): > 100 µM
- TGI (SF-268 CNS): > 100 µM
- TGI (HCC-2998 colon): > 100 µM
- TGI (UACC-62 melanoma): > 100 µM
- TGI (UACC-257 melanoma): > 100 µM
- TGI (LOX IMVI melanoma): > 100 µM
